# ± gives the expanded uncertainty stated by the source.
# Settings: 101.33 kPa, Liquid; for speed of sound: Sing-around technique in a fixed-path interferometer; for mass density: Vibrating tube method
SMILES,speed of sound (278.15 K) [m/s],mass density (278.15 K) [kg/m3],speed of sound (288.15 K) [m/s],mass density (288.15 K) [kg/m3],speed of sound (298.15 K) [m/s],mass density (298.15 K) [kg/m3],speed of sound (308.15 K) [m/s],mass density (308.15 K) [kg/m3],speed of sound (318.15 K) [m/s],mass density (318.15 K) [kg/m3],speed of sound (328.15 K) [m/s],mass density (328.15 K) [kg/m3]
CCn1cc[n+](C)c1.O=S(=O)([O-])C(F)(F)F [1-ethyl-3-methylimidazolium trifluoromethanesulfonate],1482.2 ± 2.1,1400.51 ± 1.8,1458.3 ± 2.1,1392.02 ± 1.8,1435.6 ± 2.1,1383.58 ± 1.7,1413.2 ± 2.1,1375.19 ± 1.7,1391.3 ± 2.1,1366.86 ± 1.7,1369.7 ± 2.1,1358.59 ± 1.7
CC(C)O [propan-2-ol],1208.5 ± 0.74,797.34 ± 0.12,1173.1 ± 0.73,789.22 ± 0.13,1138.2 ± 0.72,780.89 ± 0.13,1103.2 ± 0.71,772.28 ± 0.13,1068.1 ± 0.7,763.32 ± 0.14,1032.6 ± 0.69,753.95 ± 0.14
C1CCOC1 [tetrahydrofuran],1375 ± 0.87,903.71 ± 0.09,1325.8 ± 0.85,892.92 ± 0.09,1277.4 ± 0.83,882.02 ± 0.1,1229.6 ± 0.81,871 ± 0.1,1182.4 ± 0.8,859.84 ± 0.11,–,–

# Reference: the NIST ThermoML archive (doi:10.1021/je200609g)
